The values that follow come from PMC6022226, “Novel coumarin-6-sulfonamides as apoptotic anti-proliferative agents: synthesis, in vitro biological evaluation, and QSAR studies” (Journal of Enzyme Inhibition and Medicinal Chemistry, 2018).

Experiment [1] relates to HepG2 hepatocellular carcinoma. The experiment can be described thus: In vitro anti-proliferative activity, SRB assay, HepG2. It counts as cell-based, human. Conditions: for fold increased potency than doxorubicin: HepG2 IC50 ratio. On the procedure:
(§1) HepG2 liver cancer, MCF-7 breast cancer and Caco-2 cancer cell lines were obtained from the National Cancer Institute (Cairo, Egypt). Caco-2 cells were grown in DMEM while HepG2 and MCF-7 were grown in RPMI-1640. Media were supplemented with 10% heat-inactivated FBS, 50 units/mL of penicillin and 50 µg/mL of streptomycin and maintained at 37 °C in a humidified atmosphere containing 5% CO2. The cells were maintained as a “monolayer culture” by serial subculturing. Cytotoxicity was determined using the sulforhodamine B (SRB) method as previously described by Skehan et al.[50] Exponentially growing cells were collected using 0.25% trypsin-EDTA and seeded in 96-well plates at 1000–2000 cells/well in supplemented DMEM medium. After 24 h, cells were incubated for 72 h with various concentrations of the tested compounds as well as doxorubicin as the reference compound. Following 72 h of treatment, the cells were fixed with 10% trichloroacetic acid for 1 h at 4 °C. Wells were stained for 10 min at room temperature with 0.4% SRB dissolved in 1% acetic acid. The plates were air dried for 24 h, and the dye was solubilized with Tris–HCl for 5 min on a shaker at 1600 rpm. The optical density (OD) of each well was measured spectrophotometrically at 564 nm with an ELISA microplate reader (ChroMate-4300, FL, USA). The IC50 values were calculated according to the equation for Boltzmann sigmoidal concentrationeresponse curve using the nonlinear regression models (GraphPad, Prism Version 5). The results reported are means of at least three separate experiments. Significant differences were analyzed by one-way ANOVA wherein the differences were considered to be significant at p < .05.
(§2) All the newly synthesized target coumarin sulfonamides were evaluated for their in vitro anti-proliferative activity against three human tumor cancer cell lines, HepG2 hepatocellular carcinoma, MCF-7 breast cancer, and Caco-2 colon cancer, using SRB colorimetric assay as described by Skehan et al.^50 Doxorubicin was involved in the experiments as a reference cytotoxic compound.

Another experiment concerns MCF-7 breast cancer. Nature of the experiment: In vitro anti-proliferative activity, SRB assay, MCF-7. It counts as cell-based, human. As to conditions: mean ± SE of three experiments. On the procedure:
as §1, §2

The test system of another experiment is Caco-2 colon cancer. Nature of the experiment: In vitro anti-proliferative activity, SRB assay, Caco-2. It counts as cell-based, human. On the procedure:
as §1, §2

Experiment [2] has as its system non-tumorigenic human normal lung fibroblast cell line (WI-38). Nature of the experiment: In vitro cytotoxicity towards normal WI-38 cells. As to conditions: for Selectivity index: WI-38 versus HepG2; for IC50: normal lung fibroblasts. It counts as cell-based.
A further experiment concerns caspase-3. Nature of the experiment: ELISA immunoassay, active caspase-3 level in HepG2 cells. It counts as cell-based, human. As to conditions: HepG2 cells treated at IC50 concentration. An excerpt:
(§3) The levels of the apoptotic markers (Bax, caspase-3) and the anti-apoptotic marker (Bcl-2) were examined using ELISA colorimetric kits per the manufacturer’s protocol and referring to reported instructions[51] ^, [52].
As a key executioner protease, caspase-3 is activated by upstream initiator caspases as caspase-9.

The subject of a further experiment is Bax. Nature of the experiment: ELISA immunoassay, Bax expression level in HepG2 cells. It counts as cell-based, human. Conditions: HepG2 cells treated at IC50 concentration.
Source text: as §3
(§4) The Bcl-2 proteins family is mainly responsible for synchronizing the mitochondrial apoptotic pathway, and classified into two major classes: anti-apoptotic proteins such as Bcl-2 protein and the counteracting pro-apoptotic proteins including Bax protein. In this study, we examined the impact of coumarins 13a and 15a on the level of the anti-apoptotic Bcl2 and the level of the pro-apoptotic Bax (Table 3).

The subject of another experiment is Bcl-2. Nature of the experiment: ELISA immunoassay, Bcl-2 expression level in HepG2 cells. Type of experiment: cell-based, human. Conditions: HepG2 cells treated at IC50 concentration.
Source text: as §3, §4

Experiment [3] has as its system HepG2 cells. The experiment can be described thus: Cell cycle analysis by DNA flow cytometry (PI). Conditions: HepG2, 24 h, at IC50 concentration. Type of experiment: cell-based, human. The procedure: Subsequently, the treated cells were collected by centrifugation, fixed in ice-cold 70% (v/v) ethanol, washed with PBS, re-suspended with 0.1 mg/mL RNase, stained with […] PI, and analyzed by flow cytometry using FACS Calibur (Becton Dickinson, BD). The cell cycle distributions were calculated using CellQuest software (Becton Dickinson)[53].
The impact of compound 13a on cell cycle progression was examined in HepG2 cancer cell line after 24 h of treatment (Figure 2). This impact was illustrated by DNA flow cytometric analysis where HepG2 cells were treated with 13a at concentration equals to its IC50. […] Alteration of the Pre-G1 phase and arrest of G2-M phase were significant remarks for compound 13a to induce apoptosis in HepG2 cells.

For experiment [4], the system named is HepG2 cells. Nature of the experiment: Annexin V-FITC/PI apoptosis assay. It counts as cell-based, human. As to conditions: HepG2, 24 h. On the procedure:
Phosphatidylserine externalization was measured using Annexin V-FITC/PI apoptosis detection kit (BD Biosciences, San Jose, CA) according to the manufacturer's instructions, as reported earlier. HepG2 cells were treated with 13a at defined concentrations for 24 h.
The apoptotic effect of coumarin 13a was further assured by Annexin V-FITC/PI (AV/PI) dual staining assay to investigate the occurrence of phosphatidylserine externalization (Figure 3).

Like-named read-outs stand apart in the source and are kept apart here.

As for “2-Oxo-N-(4–(1-(2–(5-oxo-4,5-dihydrothiazol-2-yl)hydrazono)ethyl)phenyl)-2H-chromene-6-sulfonamide [Compound 15a]”, in [1] (72 h incubation, SRB, mean ± SE of three experiments, read-out: IC50 HepG2), the IC50 was 5.03 ± 0.39 µM. In addition, the “fold increased potency than doxorubicin” value in experiment [1] came out at 1.1 fold. For the same compound, the “HepG2 Experimental activity (pIC50)” value in experiment [1] (external validation test compounds, Table 5, -log IC50 (IC50 in µM)) was “–0.7016”. Besides, the IC50 in the experiment on MCF-7 breast cancer (72 h incubation, read-out: IC50 MCF7) is 11 ± 0.96 µM. Besides, the IC50 in the experiment with Caco-2 colon cancer (72 h incubation, SRB, mean ± SE of three experiments, read-out: IC50 Caco-2) was found to be 158 ± 9.39 µM. Moreover, the “Caco-2 Experimental activity (pIC50)” value with Caco-2 colon cancer (training set, Table 4, -log IC50 (IC50 in µM)) is −2.1997. In [2], this compound came in with a Selectivity index of 11 and an IC50 of 55.92 ± 0.39 µM. In the experiment with caspase-3, the “Caspase-3 (active caspase-3 level)” value turned out to be 0.2625 ng/mg protein and the “Caspase-3, folds of control” value is given as ~5.7 folds. Moreover, in the experiment on Bax, the Bax expression level was 394.3 Pg/mg protein and the “Bax, folds of control” value came to 14.3 folds. In the experiment with Bcl-2, the “Bcl-2, folds of control” value was found to be 0.39 folds; the Bcl-2 expression level was 2.73 ng/mg protein; the “Bcl-2 level, % of control” value worked out at 38.6%.
On to `CC(=NNc1nc(-c2ccccc2)cs1)c1ccc(NS(=O)(=O)c2ccc3oc(=O)ccc3c2)cc1` [Compound 13a, 2-Oxo-N-(4–(1-(2–(4-phenylthiazol-2-yl)hydrazono)ethyl)phenyl)-2H-chromene-6-sulfonamide], for which, in [1], the “fold increased potency than doxorubicin” value turned out to be 1.5 fold. The IC50 in experiment [1] (Homo sapiens, HepG2, 72 h, 72 h incubation, SRB, mean ± SE of three experiments, read-out: IC50 HepG2) was 3.48 ± 0.28 µM; in [1] (Homo sapiens, HepG2, training set, Table 4, -log IC50 (IC50 in µM), read-out: HepG2 Experimental activity (pIC50) (converted)) it was 3.48 µM; in the experiment with MCF-7 breast cancer (Homo sapiens, MCF7, 72 h incubation) it was 83.2 ± 6.85 µM; in the experiment on Caco-2 colon cancer (Homo sapiens, Caco-2, 72 h incubation, SRB, mean ± SE of three experiments, read-out: IC50 Caco-2), 83.4 ± 7.04 µM; in the experiment on Caco-2 colon cancer (Homo sapiens, Caco-2, training set, Table 4, -log IC50 (IC50 in µM), read-out: Caco-2 Experimental activity (pIC50) (converted)), 83.4 µM; in experiment [2] (Homo sapiens, WI-38), 73.2 ± 3.47 µM. The compound further had a Selectivity index in experiment [2] of 21. The “Caspase-3 (active caspase-3 level)” value with caspase-3 is 0.3021 ng/mg protein. Further, the Bax expression level in the experiment on Bax amounted to 453.3 Pg/mg protein. Further, in the experiment on Bax, the “Bax, folds of control” value is 16.5 folds. Further, the “Bcl-2, folds of control” value in the experiment on Bcl-2 is recorded as 0.21 folds. This compound showed a Bcl-2 expression level with Bcl-2 of 1.51 ng/mg protein. For the same compound, the “Bcl-2 level, % of control” value in the experiment on Bcl-2 was determined as 21.4%. The “arrest in G2-M phase compared to control” value in the experiment on HepG2 cells [3] turned out to be 5.4 folds. The “increase in percentage of cells at Pre-G1 compared to control” value with HepG2 cells [3] came to 6.4 folds. The “annexin V-FITC positive apoptotic cells, folds compared to control” value in the experiment on HepG2 cells [4] is recorded as “about 7.9 folds”. Moreover, the “annexin V-FITC positive apoptotic cells (UR + LR)” value in the experiment on HepG2 cells [4] (control 1.75%) worked out at 13.76%.
